Results on five molecules are retold here after PMC9248040 (RSC Advances, 2022).

Holding throughout (format): biochemical
Assay [1] addresses T1, MAO-B (monoamine oxidase-B) (Homo sapiens, UniProt P27338).
T1 sequence (P27338 2-520): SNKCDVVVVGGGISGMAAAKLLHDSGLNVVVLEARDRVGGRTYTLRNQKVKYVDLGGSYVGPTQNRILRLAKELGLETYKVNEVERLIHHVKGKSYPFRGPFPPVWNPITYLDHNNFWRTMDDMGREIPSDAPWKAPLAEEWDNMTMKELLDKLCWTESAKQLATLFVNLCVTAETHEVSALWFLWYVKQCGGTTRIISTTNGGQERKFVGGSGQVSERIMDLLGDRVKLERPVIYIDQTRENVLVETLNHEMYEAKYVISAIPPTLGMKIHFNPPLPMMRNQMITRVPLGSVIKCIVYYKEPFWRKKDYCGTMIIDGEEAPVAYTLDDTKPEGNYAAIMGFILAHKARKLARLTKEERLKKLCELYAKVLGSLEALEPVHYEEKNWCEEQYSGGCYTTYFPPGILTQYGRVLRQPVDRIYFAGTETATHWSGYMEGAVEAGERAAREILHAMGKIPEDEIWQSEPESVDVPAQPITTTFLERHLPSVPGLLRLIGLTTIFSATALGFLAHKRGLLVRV
Description: fluorometric OxiRed-probe kit inhibition assay.

Assay [2] has as its target BACE1 (β-secretase) (Homo sapiens, UniProt P56817). Description: fluorescence kit substrate-cleavage inhibition assay.
The target in assay [3] is Aβ1–42 (amyloid-β 1-42) (Homo sapiens, UniProt P05067). Description: fluorescent-probe fibril aggregation inhibition kit assay.

SMILES strings stand for the structures.

Sequence of BACE1 (β-secretase) (P56817 46-457): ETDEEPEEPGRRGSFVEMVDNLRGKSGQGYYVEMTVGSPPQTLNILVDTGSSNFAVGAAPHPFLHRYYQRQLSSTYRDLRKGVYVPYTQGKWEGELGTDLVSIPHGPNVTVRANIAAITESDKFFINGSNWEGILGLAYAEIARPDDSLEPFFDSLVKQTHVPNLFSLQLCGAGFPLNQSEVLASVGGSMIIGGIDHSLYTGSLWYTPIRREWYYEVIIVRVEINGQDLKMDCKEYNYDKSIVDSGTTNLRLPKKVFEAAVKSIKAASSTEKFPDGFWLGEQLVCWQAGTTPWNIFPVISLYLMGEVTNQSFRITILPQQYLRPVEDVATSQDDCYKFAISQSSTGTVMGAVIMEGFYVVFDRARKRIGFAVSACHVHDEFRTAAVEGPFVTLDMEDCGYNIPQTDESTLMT
Sequence of Aβ1–42 (amyloid-β 1-42) (P05067 672-713): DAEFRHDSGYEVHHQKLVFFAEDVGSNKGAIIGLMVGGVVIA

One may read the IC50 as the concentration that inhibits the measured activity by half. Consider `COc1cc(/C=C/C(=O)NCCc2ccc(O)c(OC)c2)ccc1O` [compound 1, N-trans-feruloyl-3-methoxytyramine], for which the IC50 was 2.07 µM in assay [1], 15.7 µM in assay [2] and 0.874 µM in assay [3].
On the same counts, the results for `COc1cc(/C=C/C(=O)NCCc2ccc(O)cc2)ccc1O` [compound 2, N-trans-feruloyltyramine] are 7.15 µM, 37 µM and 3.83 µM.
As to `COc1cc(/C=C/C(=O)NC[C@@H](O)c2ccc(O)cc2)ccc1O` [compound 4, S-(−)-N-trans-feruloyloctopamine], the figures for the IC50 in assay [1], in assay [2] and in assay [3] were 18 µM, 110 µM and 39.8 µM, respectively.
With `O=C(/C=C/c1ccc(O)c(O)c1)NCCc1ccc(O)cc1` [compound 6, N-trans-caffeoyltyramine], the IC50 was 8.75 µM in assay [1], 34.1 µM in assay [2] and 20.2 µM in assay [3].
With `COc1cc(/C=C/C(=O)NC[C@@H](OC)c2ccc(O)cc2)ccc1O` [compound 7, S-(−)-3-(4-hydroxy-3-methoxyphenyl)-N-[2-(4-hydroxyphenyl)-methoxyethyl]acrylamide], the IC50 in assay [1] was 4.43 µM; in assay [2], 16.4 µM; in assay [3] it was 7.63 µM.
